# In paper PMC6346638, “Recognition of Peptidoglycan Fragments by the Transpeptidase PBP4 From Staphylococcus aureus” (Frontiers in Microbiology, 2019):
# Entries after “also recorded” stand apart in the source; their conditions may differ. Non-standard residues stand in square brackets, D forms with d. No end group written: not given here.
# Tests used:
# PBP4(S75C) [1] = test: X-ray crystallography, ligand soaking of PBP4(S75C) crystals; assay type: binding, Staphylococcus aureus; conditions: soak with 1 mM ampicillin and 8 mM pentapeptide, 40–60 min; 1.86 Å
# Description: PBP4(S75C) was crystallized using the sitting drop vapor diffusion method with streak seeding. Protein at 25–35 mg mL^−1 was added to precipitant solution (8 mM zinc chloride, 80 mM sodium acetate pH 5, 100 mM sodium fluoride, and 16% polyethylene glycol 6000) in a 1:1 (v/v) ratio and incubated at 23°C. Immediately after mixing the protein and precipitant solution, the drops were streak-seeded with a housecat whisker that had been swished through a drop containing PBP4(S75C) crystals. […] Crystals were then promptly harvested and stored in liquid nitrogen.
# Data collection was performed under cryogenic temperatures (100 K) at the Advanced Light Source synchrotron (U.C. Berkeley) on beamline 5.0.2. Data from one crystal that diffracted to 1.9 Å resolution were processed using Xia2 (Winter et al., [2013]) and XDS (Kabsch, [2010]) with a space group of C121 and merged with Aimless in the CCP4 software package (Winn et al., [2011]). Phaser (McCoy et al., [2007]) was employed to solve the structure by molecular replacement using PDB ID 5TXI as the starting model. The Phenix suite of programs was used for model generation and refinement (Adams et al., [2010]). Briefly, AutoBuild was used with several iterative rounds of manual manipulation of the model with Coot (Emsley et al., [2010]) followed by refinement with Phenix.refine with TLS being used in the later stages of refinement.
# PBP4 [2] = test: X-ray crystallography, ligand soaking of PBP4 crystals; assay type: binding, Staphylococcus aureus; conditions: soaking with ampicillin and synthetic pentapeptide stem
# PBP4 [3] = conditions: 10 μM PBP4, 10 mM Tris/HCl pH 7.5, 10 mM MgCl2, 0.1% Triton X-100, 37°C overnight; HPLC
# Description: Assays were carried out in a final volume of 50 μL containing 10 mM Tris/HCl at pH 7.5, 10 mM MgCl2, 0.1% Triton X-100, and 10 μM PBP4 or PBP4(S75C). A ~5 mg mL^−1 suspension of PG or 25 μL of a ~5 mg mL^−1 solution of muropeptides were added and the reaction mixture was incubated at 37°C overnight. The enzymatic reaction was stopped by boiling the samples for 10 min. Muropeptides were reduced and analyzed by HPLC as described (Boneca et al., [1997]).
# [4] = test system: S. aureus laboratory mutant 27s; conditions: deletion of PBP4 in mutant 27s; ref Leski and Tomasz, 2005; cited from earlier work
# Text: S. aureus PBP4 is an unusual class C PBP showing TPase activity in vivo (Loskill et al., [2014]; Hamilton et al., [2017]) and in vitro (Qiao et al., [2014]; Srisuknimit et al., [2017]) in addition to its expected CPase activity.
# [5] = test system: ceftobiprole-resistant Staphylococcus aureus strain (CRB); conditions: pbp4 mutations giving E183A and F241R; ref Banerjee et al., 2010; cited from earlier work
# Text: The replacement of E183 by an alanine disrupts the Van-der-Waals interaction between this residue and ...
# PBP4(S75C) [6] = test: PBP4(S75C) acylation by imipenem, native mass spectrometry; assay type: binding, Staphylococcus aureus; conditions: 1.25 mM imipenem, ~23°C, 30 min, pH 6; MS
# Description: For mass spectrometry analysis, samples were thawed and diluted 500 times in 5% acetonitrile and 0.1% formic acid. 5 μL of each sample was injected onto a 5-mm C4 column connected to a Waters Xevo GS-2 QTof mass spectrometer via a NanoAquity UPLC system. Samples were eluted in a 2-min gradient from 5 to 100% acetonitrile at a flow rate of 20 μL min^−1. Mass spectra (Supplementary Figure S3) were summed and peak masses deconvoluted using Waters' MassLynx software (V4.1).
# PBP4(S75C) [7] = test: Liquid-state NMR titration (15N-BEST-TROSY chemical shift perturbation); assay type: binding, Staphylococcus aureus; conditions: lactoyl-tetrapeptide up to 52 molar equivalents, 326 μM protein; 25°C, 50 mM potassium phosphate pH 6.5
# Description: NMR Titration Experiments
# Interaction studies with ^15N-labeled PBP4(S75C) and different substrates were monitored by superimposition of ^15N-BEST-TROSY spectra at 25°C for different substrate-to-protein ratio. Synthetic peptide stems and peptidoglycan fragments were extensively dialyzed against water using a Spectra/PorTM dialysis membrane with a 100–500 Da cutoff (Spectrum Laboratories, Inc.) and lyophilized before preparation of a few-mM stock solution in the protein buffer, with 50 mM potassium phosphate at pH 6.5. A 326-μM solution of PBP4(S75C) was titrated with 2, 8, 22, and 52 molar equivalents of tetrapeptide. […] CcpNmr was used to monitor protein chemical shift perturbations (CSP) for every assigned amide resonance by superimposition of the ^15N-BEST-TROSY spectra. CSPs (Δδ) were calculated on a per-residue basis for the highest substrate-to-protein ratio as follows:
# where γN and γH are the ^1H and ^15N gyromagnetic ratios, respectively, and δ^XPBP4(S75C):sub , and δ^XPBP4(S75C) are the protein resonance chemical shift value in the presence and absence, respectively, of the substrate at the highest ratio.
# The following substrates were added at 25 °C on 150 -µM PBP4(S75C) solution
# in 50 mM potassium phosphate buffer, pH 6.5: (A) Tetrapeptide at approximately 52 molar […]
# overlapped residues, for which CSPs could not be determined.
# [8] = biological target: 15N-labeled PBP4(S75C) from Staphylococcus aureus, His-tag not cleaved (NMR sample) (S. aureus); test: NMR titration; 15N-BEST-TROSY spectra at 25°C; 326 μM 15N-labeled PBP4(S75C) titrated with 2, 8, 22 and 52 molar equivalents of unlabeled tetrapeptide; 50 mM potassium phosphate pH 6.5
molecule,measurement,setting,value
CC1(C)S[C@@H]2[C@H](NC(=O)[C@H](N)c3ccccc3)C(=O)N2[C@H]1C(=O)O [ampicillin],"electron density of soaked ligand, PBP4(S75C) crystals",PBP4(S75C) [1],unable to identify electron density
same,"electron density of soaked ligand, PBP4 crystals",PBP4 [2],unable to identify electron density
disaccharide pentapeptide(Gly5) [disaccharide pentapeptide(Gly5) (peak5)],DD-CPase activity of PBP4: conversion of monomeric muropeptide,PBP4 [3],nearly quantitatively converted to disaccharide tetrapeptide(Gly5) (peak A)
CO/N=C(\C(=O)N[C@@H]1C(=O)N2C(C(=O)O)=CCS[C@H]12)c1csc(N)n1 [ceftizoxime],susceptibility on deletion of PBP4,[4],increase in ceftizoxime susceptibility
"HO-D-Lac-L-Ala-D-iGln-[L-Lys(Gly)5]-D-Ala-D-Ala-COOH [pentapeptide, synthetic branched lactoyl-peptide resembling the native S. aureus PG stem]","electron density of soaked ligand, PBP4(S75C) crystals",PBP4(S75C) [1],unable to identify electron density
same,"electron density of soaked ligand, PBP4 crystals",PBP4 [2],unable to identify electron density
Nc1nc(/C(=N/O)C(=O)N[C@@H]2C(=O)N3C(C(=O)O)=C(/C=C4\CCN([C@@H]5CCNC5)C4=O)CS[C@H]23)ns1 [ceftobiprole],resistance of CRB strain,[5],resistant
C[C@@H](O)[C@H]1C(=O)N2C(C(=O)O)=C(SCCN=CN)C[C@H]12 [imipenem],acylation of PBP4(S75C),PBP4(S75C) [6],"binds covalently to PBP4S75C, to form a stable acylenzyme; also recorded: sensitive to acylation"
HO-D-Lac-L-Ala-D-iGln-L-Lys(Gly)5-D-Ala-COOH [lactoyl-tetrapeptide],chemical shift perturbations for the amide resonances of PBP4(S75C),PBP4(S75C) [7],did not create any significant chemical shift perturbations
HO-D-Lac-L-Ala-D-iGln-L-Lys(Gly)5-D-Ala-COOH tetrapeptide (not fully specified (some residues); also: chain 2 (Gly)5 attached to Lys side chain) chain 1: {HO‑D‑Lac}-A[diGln]K[dA]-OH chain 2: GGGGG,Kd,[8],> 110 mM
